{
  "source": "patent US20160000750A1",
  "about": "“COMBINATION OF EGCG OR METHYLATED EGCG AND A PDE INHIBITOR” (KYUSHU UNIVERSITY, NATIONAL UNIVERSITY CORPORATION, priority 2010, published 2016)",
  "key": {"[1]": {"test_system": "Toll-like receptor (TLR) 2", "assay": "TLR2 expression in RAW 264.7 by Western blotting", "type": "cell-based, mouse", "conditions": "vardenafil 5 μM, EGCG 10 μM added after 3 hours, 24 hours, untreated = 100", "method": "A mouse macrophage cell line, RAW 264.7, was seeded in a 5-mL dish at 1×10^5 cells/mL and was pre-cultured in a DMEM medium supplemented with 1% FCS for 24 hours. Subsequently, vardenafil was added thereto at a concentration of 5 μM. After 3 hours, EGCG was added thereto at a concentration of 0 μM or 10 μM. After 24 hours, the cells were collected, and the expressions of Toll-like receptor (TLR) 2 and TLR 4 were measured by Western blotting."}, "[2]": {"test_system": "human prostate cancer cell line, PC3", "assay": "Trypan blue cell viability and viable cell count, PC3", "type": "cell-based", "conditions": "vardenafil 5 μM, EGCG 10 μM added after 2 hours, 96 hours", "method": "A human prostate cancer cell line, PC3, was subcultured in an RPMI 1640 medium supplemented with 10% fetal calf serum (FCS) at 37° C. under vapor-saturated 5% CO2 conditions. The cells were cultured in the logarithmic growth phase. The RPMI 1640 medium used in the culture was prepared by suspending 10.4 g of an RPMI 1640 medium, 2.38 g of HEPES, 0.5 vial of Penicillin G Potassium for Injection 200000 Unit, 0.1 vial of Streptomycin Sulfate for Injection 1 g, and 2.0 g of NaHCO3 in 1 L of ultrapure water, followed by filter sterilization. Subsequently, the RPMI 1640 medium was supplemented with fetal calf serum (FCS) and was used in cell culture. A trypan blue staining solution was prepared by suspending trypan blue in PBS at a concentration of 1% and was used in investigation of the anti-cancer activity of a combination of EGCG and vardenafil by trypan blue assay. The PBS used was prepared by dissolving 8.0 g of NaCl, 0.2 g of KCl, 1.15 g of Na2HPO4, and 0.2 g of KH2PO4 in 1 L of ultrapure water, followed by autoclave sterilization. […] After 10 minutes, the number of the cells was counted with a hemocytometer. Unstained cells were deemed as viable cells, and the cell viability was determined as a ratio of the number of unstained cells in trypan blue staining to the total number of cells. […]"}, "[3]": {"test_system": "human multiple myeloma cell line, RPMI8226", "assay": "Trypan blue cell viability and viable cell count, RPMI8226", "type": "cell-based", "conditions": "vardenafil 5 μM, EGCG 5 μM, 96 hours", "method": "Enhancement of the activity of EGCG on multiple myeloma cells by vardenafil was investigated. A human multiple myeloma cell line, RPMI8226, was seeded in a 24-well plate at 5×10^4 cells/mL, and vardenafil was added thereto at a final concentration of 5 μM. After 3 hours, EGCG was added thereto at a final concentration of 5 μM. After 96 hours, cell viability (A) and the number (B) of viable cells were measured by trypan blue staining. The value of a control group of cells not treated with EGCG and vardenafil was defined as 100%. The results are shown in FIG. 8 (n=3, Tukey's test, *: P<0.05, ***: P<0.001)."}},
  "data": [
    {"substance": "(−)-epigallocatechin-3-O-gallate [EGCG]", "values": [
      {"measurement": "TLR2 expression level(%)", "setting": "[1]", "result": 90, "unit": "%"},
      {"measurement": "cell viability (cell-killing activity)", "setting": "[2]", "result": "any cytotoxicity was not observed"},
      {"measurement": "cell viability (cell-killing activity)", "setting": "[3]", "result": "any cytotoxicity was not observed"}
    ]}
  ]
}
